How the values were obtained:
[1] = target: FasRL106F (Mycobacterium tuberculosis, UniProt O05858, L106F); format: biochemical
[2] = target: FasRLVL (Mycobacterium tuberculosis, UniProt O05858, L106F/L185F/V163F); format: biochemical
[3] = target: FasRF123A (Mycobacterium tuberculosis, UniProt O05858, F123A); format: binding

CCCCCCCCCCCCCCCCCCCC(=O)SCCNC(=O)CCNC(=O)[C@H](O)C(C)(C)COP(=O)(O)OP(=O)(O)OC[C@H]1O[C@@H](n2cnc3c(N)ncnc32)[C@H](O)[C@@H]1OP(=O)(O)O [C20-CoA, arachidoyl-CoA]
acyl-CoA concentration at which the protein–DNA complex dissociates [1]: > 4 µM | protein–DNA complex in the presence of ligand [2]: remained bound to DNA | SPR association of FasRF123A to C20-CoA compared with FasRwt [3]: comparable association kinetics
